Source: US20230391778A1, “INDOLIN-2-ONE OR PYRROLO -PYRIDIN -2 -ONE DERIVATIVES” (Hoffmann-La Roche Inc., priority 2014, published 2023)

Columns and labels:
mouse ENT-1 transporter = target: T1, mouse ENT-1 transporter (Mus musculus, UniProt Q9JIM1); experiment: Measure of adenosine transport activity (ENT1 adenosine uptake inhibition); format: cell-based; settings: stable cells expressing mouse ENT-1, [2,8-3H]-adenosine 6 nM, 20 min
T1 construct: expressed in transfected cells
T1 sequence (Q9JIM1 1-460): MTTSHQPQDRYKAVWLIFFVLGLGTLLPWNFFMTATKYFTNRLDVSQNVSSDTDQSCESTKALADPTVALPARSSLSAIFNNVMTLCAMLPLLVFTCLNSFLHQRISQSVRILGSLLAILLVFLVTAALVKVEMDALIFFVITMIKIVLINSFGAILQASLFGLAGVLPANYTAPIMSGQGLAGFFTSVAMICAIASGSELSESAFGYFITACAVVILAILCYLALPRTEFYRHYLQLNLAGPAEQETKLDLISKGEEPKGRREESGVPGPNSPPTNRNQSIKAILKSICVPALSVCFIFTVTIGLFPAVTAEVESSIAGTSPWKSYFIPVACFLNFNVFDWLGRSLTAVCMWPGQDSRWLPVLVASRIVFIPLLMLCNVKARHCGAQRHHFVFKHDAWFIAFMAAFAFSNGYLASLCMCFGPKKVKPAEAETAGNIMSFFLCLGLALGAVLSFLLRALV
In short: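 Stable mouse ENT-1 cells, 60,000/well, washed into pH 7.4 Hepes-Tris uptake buffer and incubated at RT with compound (1% DMSO final) for 20 min with shaking. Non-specific uptake defined with 10 μM NBTI; cell-associated radioactivity counted by scintillation after ice-cold washes.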

[1] = tested on: L-687,414-induced hyperlocomotion; experiment: L-687,414-induced hyperlocomotion; format: in vivo, mouse; settings: Mus musculus; Dose ip 30 mg/kg, mice, 50 mg/kg s.c. L-687,414
Method: The described compounds of formula I reduce L-687,414-induced hyperlocomotion. This was assessed by using a computerized Digiscan 16 Animal Activity Monitoring System (Omnitech Electronics, Columbus, Ohio) to quantify locomotor activity. Animals were kept under a 12 h light/dark cycle and experiments were performed during the light period. Each activity monitoring chamber consisted of a Plexiglas box (41×41×28 cm; W×L×H) with sawdust bedding on the floor surrounded by invisible horizontal and vertical infrared sensor beams. The test boxes were divided by a Plexiglas cross providing each mouse with 20×20 cm of moving space. Cages were connected to a Digiscan Analyzer linked to a computer that constantly collected the beam status information. Records of photocell beam interruptions for individual animals were taken every 5 min over the duration of the experimental session and the sum of the first 6 periods was used as the final parameter. At least 8 mice were used in each treatment group. Compounds were administered either p.o. 15 min before a s.c. injection of 50 mg/kg of L-687,414, or i.p. at the same time as a s.c. injection of 50 mg/kg of L-687,414. Mice were then transferred from their home cage to the recording chambers for a 15-min habituation phase allowing free exploration of the new environment. Horizontal activity was then recorded for a 30-min time period. The % inhibition of L-687,414-induced hyperlocomotion was calculated according to the equation:
((Veh+L-687,414 horizontal activity−drug+L-687,414 horizontal activity)/Veh+L-687,414 horizontal activity)×100
ID50 values, defined as doses of each compound producing 50% inhibition of L-687,414-induced hyperlocomotion, were calculated by linear regression analysis of a dose-response data using an Excel-based computer-fitting program.
As data was not presupposed to be normally distributed, groups treated with test compounds were statistically compared with the control (vehicle-treated) group using one-tailed Mann Whitney U tests. In statistics, the Mann-Whitney U test (also called the Mann-Whitney-Wilcoxon (MWW) or Wilcoxon rank-sum test) is a non-parametric statistical hypothesis test for assessing whether one of two samples of independent observations tends to have larger values than the other. It is one of the most well-known non-parametric significance tests. […] P values given in table 1 are one-tailed since only decreases in locomotion were expected and tested for (Mann, H. B., Whitney, D. R. (1947), “On a Test of Whether one of Two Random Variables is Stochastically Larger than the Other”, Annals of Mathematical Statistics, 18 (1), 50-60).

mice = experiment: SmartCube behavioral signature similarity analysis; format: in vivo, mouse; set-up: key to discrimination rate vs Clozapine (similarity analysis) / discrimination rate vs Olanzapine (similarity analysis) / discrimination rate vs Risperidone (similarity analysis): fraction; 0.5 = zero distinguishability between the two drugs
From the text: In addition to the reversal of L-687,414 induced hyperlocomotion experiment as described above, some compounds of the present invention have been tested in SmartCube®, an automated system in which the behaviors of compound-treated mice in response to multiple challenges are captured by digital video and analyzed with computer algorithms (Roberds et al., Frontiers in Neuroscience, 2011, Vol. 5, Art. 103, 1-4; Vadim Alexandrov, Dani Brunner, Taleen Hanania, Emer Leahy Eur. J. Pharmacol. 2015, 750, 82-99). In this way, the neuro-pharmacological effects of a test compound can be predicted by similarity to major classes of compounds, such as antipsychotics, anxiolytics and antidepressants.
As mentioned above, some compounds have been tested in SmartCube©, an analytical system developed by PsychoGenics Inc.
SmartCube® was used to compare the behavioral signature of a test compound to a database of behavioral signatures obtained from a large set of clinically approved reference drugs, grouped per indications. In this way, the neuro-pharmacological effects of a test compound can be predicted by similarity to major classes of compounds, such as antipsychotics, anxiolytics and antidepressants. This approach is ideally suited to screen collections of existing drugs or drug candidates with previously unknown neuropharmacology, which could expedite the development of new and unexpected treatments for psychiatric disorders.
Some compounds of the present invention were injected i.p. at different doses 15 minutes before the test. At least 8 mice were used in each treatment group. Digital videos of the subjects were processed with computer vision algorithms to extract over 2000 dependent measures including frequency and duration of many different behavioral states. The results of the classifications are presented as bar charts for each compound and dose (mg/kg), the Y-axis indicates the relative probability that the test compound will show efficacy in the specific CNS indication.
For comparison, the behavioral signatures of the atypical antipsychotics clozapine, olanzapine and risperidone are shown in FIG. 2. Compounds of the present invention show similar signatures to those of atypical antipsychotics. An independent analysis was performed on the unclassified data to determine the similarity of the example compounds to active doses of known atypical antipsychotics. For this analysis, we use discrimination rate as the measure of separability between the two drugs, i.e. one drug's “distinguishability” from another. A rate equal to 50% (or 0.5) corresponds to zero distinguishability. […] In most cases, the example compounds show a similarity to risperidone, clozapine and olanzapine with a discrimination rate of <0.70.

[2] = 5 mg/kg i.p., SmartCube, rate of 0.70 or lower = similar

In the case of `Cc1ncc(-c2ccc3c(c2)N(c2cnc(C)nc2)C(=O)C3(C)C)cn1` [Example 9, 3,3-Dimethyl-1,6-bis(2-methylpyrimidin-5-yl)indolin-2-one], the IC50 (mouse ENT-1 transporter) is reported as 174 nM, the inhibition in vivo at 30 mg/kg [1] is reported as 93.2% and the “SmartCube similarity to major drug classes” value (mice) is reported as “similarity to atypical antipsychotics”. The “discrimination rate vs Clozapine (similarity analysis)” value (mice; [2]) was 0.65, the “discrimination rate vs Olanzapine (similarity analysis)” value (mice; [2]) was 0.66 and the “discrimination rate vs Risperidone (similarity analysis)” value (mice; [2]) was 0.69.
